Values of other authors in US20040266797A1, “Use of potent,selective and non toxic c-kit inhibitors for treating tumor angiogensis” (priority 2001, published 2004).

System: tumor growth
Conditions: inhibiting mast cell degranulation

O=C([O-])c1cc(=O)c2c(OCC(O)COc3cccc4oc(C(=O)[O-])cc(=O)c34)cccc2o1.[Na+].[Na+] [disodium cromoglycate]
tumor growth: significantly depresse tumor growth
